Where two headings read alike, the source gives them in different places.

The target of the assay is T1, his-galectin-3 (Homo sapiens, UniProt P17931).
T1 construct: purchased Abcam
Briefly: TR-FRET assay (in vitro galectin-3 binding inhibitory activity test). The note with it: compound at 20 μM, 60 nM his-galectin-3, 15 nM biotin-ASF. In short, it runs like this: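 Compound is premixed with his-galectin-3 (60 nM final), then biotin-ASF (15 nM), Tb anti-His antibody (2 nM) and streptavidin-d2 (20 nM) are added. After at least 3.5 hours at RT in HEPES/NaCl buffer with Tween 20 and BSA, TR-FRET is read at 615/665 nm. DMSO serves as the uninhibited control, ASF omission as background.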
In general terms: In TR-FRET formats the signal depends on donor and acceptor labels being close together.

Where [1] appears, read: Table 1, read-out: % Inhibitory activity (at 20 μM).
Where [2] appears, read: Table 3, found values, read-out: % Inhibitory activity (at 20 μM).
Setting [3] is: read-out: % Inhibitory activity (at 20 μM), Table 1.
[4] abbreviates: Table 2, read-out: % Inhibitory activity (at 20 μM).

T1 sequence (P17931 whole entry): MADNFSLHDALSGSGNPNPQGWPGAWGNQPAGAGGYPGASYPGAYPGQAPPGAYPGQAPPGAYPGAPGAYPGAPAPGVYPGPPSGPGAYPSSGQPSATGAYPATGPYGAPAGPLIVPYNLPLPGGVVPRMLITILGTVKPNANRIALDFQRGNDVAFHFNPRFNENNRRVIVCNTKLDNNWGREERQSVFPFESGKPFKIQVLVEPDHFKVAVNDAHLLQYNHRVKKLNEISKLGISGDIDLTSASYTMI

In the case of `O=C(O[C@@H]1[C@@H](n2cc(-c3cc(F)c(F)c(F)c3)nn2)[C@@H](O)[C@@H](CO)O[C@@]12CCCO2)c1ccccc1Cl` [Compound A70, (5S,7R,8R,9S,10R)-8-hydroxy-7-(hydroxymethyl)-9-(4-(3,4,5-trifluorophenyl)-1H-1,2,3-triazol-1-yl)-1,6-dioxaspiro[4.5]decan-10-yl 2-chlorobenzoate], the inhibition at 20 µM under setting [1] was less than 25%.
Turning to `OC[C@H]1O[C@]2(OCC[C@H]2NCc2ccccn2)[C@H](O)[C@@H](n2cc(-c3cc(F)c(F)c(F)c3)nn2)[C@H]1O` [Compound A98, (4R,5S,7R,8R,9S,10R)-7-(hydroxymethyl)-4-((pyridin-2-ylmethyl)amino)-9-(4-(3,4,5-trifluorophenyl)-1H-1,2,3-triazol-1-yl)-1,6-dioxaspiro[4.5]decane-8,10-diol], the inhibition at 20 µM under setting [1] was less than 25%.
Turning to `COc1ccc2c(c1)CC[C@]1(O2)O[C@H](CO)[C@H](O)[C@H](OCc2cc3c(F)c(F)ccc3oc2=O)[C@H]1O` [Compound A08, 3-((((2R,3′R,4'S,5'S,6′R)-3′,5′-dihydroxy-6′-(hydroxymethyl)-6-methoxy-3′,4′,5′,6′-tetrahydrospiro[chromane-2,2′-pyran]-4′-yl)oxy)methyl)-5,6-difluoro-2H-chromen-2-one], the inhibition at 20 µM runs as follows: under setting [1], less than 25%; under setting [2], 21.8%.
For the molecule `O=C(Cc1ccccc1Cl)N[C@@H]1CCO[C@]12O[C@H](CO)[C@H](O)[C@H](n1cc(-c3cc(F)c(F)c(F)c3)nn1)[C@H]2O` [Compound A112, 2-(2-chlorophenyl)-N-((4R,5S,7R,8R,9S,10R)-8,10-dihydroxy-7-(hydroxymethyl)-9-(4-(3,4,5-trifluorophenyl)-1H-1,2,3-triazol-1-yl)-1,6-dioxaspiro[4.5]decan-4-yl)acetamide], the inhibition at 20 µM by setting is: under setting [1], 50 to 75%; under setting [2], 53.8%.
In the case of `O=C(Cc1cccc(Cl)c1)N1CCC[C@]2(C1)O[C@H](CO)[C@H](O)[C@H](n1cc(-c3cc(F)c(F)c(F)c3)nn1)[C@H]2O` [Compound A139, 2-(3-chlorophenyl)-1-((2R,3R,4S,5R,6R)-3,5-dihydroxy-2-(hydroxymethyl)-4-(4-(3,4,5-trifluorophenyl)-1H-1,2,3-triazol-1-yl)-1-oxa-8-azaspiro[5.5]undecan-8-yl)ethanone], under setting [3], the inhibition at 20 µM is less than 25%.
`C[C@@H](O[C@@H]1[C@@H](n2cc(-c3cc(F)c(F)c(F)c3)nn2)[C@@H](O)[C@@H](CO)O[C@@]12CCCCO2)C(=O)O` [Compound A83, (R)-2-(((2R,3R,4S,5R,6S)-3-hydroxy-2-(hydroxymethyl)-4-(4-(3,4,5-trifluorophenyl)-1H-1,2,3-triazol-1-yl)-1,7-dioxaspiro[5.5]undecan-5-yl)oxy)propanoic acid]: the inhibition at 20 µM under setting [3] lay in the range of 25 to 50%.
Consider `OC[C@H]1O[C@@]2(CCCCO2)[C@H](OCc2ccccc2O)[C@@H](n2cc(-c3cc(F)c(F)c(F)c3)nn2)[C@H]1O` [Compound A47, (2R,3R,4S,5R,6S)-5-((2-hydroxybenzyl)oxy)-2-(hydroxymethyl)-4-(4-(3,4,5-trifluorophenyl)-1H-1,2,3-triazol-1-yl)-1,7-dioxaspiro[5.5]undecan-3-ol], for which, under setting [1], the inhibition at 20 µM fell in the range of 25 to 50%.
Consider `O=C(N[C@@H]1CCO[C@]12O[C@H](CO)[C@H](O)[C@H](n1cc(-c3cc(F)c(F)c(F)c3)nn1)[C@H]2O)c1coc2ccccc12` [Compound A161, N-((4R,5S,7R,8R,9S,10R)-8,10-dihydroxy-7-(hydroxymethyl)-9-(4-(3,4,5-trifluorophenyl)-1H-1,2,3-triazol-1-yl)-1,6-dioxaspiro[4.5]decan-4-yl)benzofuran-3-carboxamide], for which the inhibition at 20 µM under setting [4] was greater than 75%.
For the molecule `O=C(O[C@@H]1[C@@H](n2cc(-c3cc(F)c(F)c(F)c3)nn2)[C@@H](O)[C@@H](CO)O[C@@]12CCCO2)c1ccc(F)cc1F` [Compound A78, (5S,7R,8R,9S,10R)-8-hydroxy-7-(hydroxymethyl)-9-(4-(3,4,5-trifluorophenyl)-1H-1,2,3-triazol-1-yl)-1,6-dioxaspiro[4.5]decan-10-yl 2,4-difluorobenzoate], the inhibition at 20 µM under setting [1] is less than 25%.
With `O=C(Cc1ccccc1)N1CCC[C@]2(C1)O[C@H](CO)[C@H](O)[C@H](n1cc(-c3cc(F)c(F)c(F)c3)nn1)[C@H]2O` [Compound A184, 1-((2R,3R,4S,5R,6R)-3,5-dihydroxy-2-(hydroxymethyl)-4-(4-(3,4,5-trifluorophenyl)-1H-1,2,3-triazol-1-yl)-1-oxa-8-azaspiro[5.5]undecan-8-yl)-2-phenylethanone], under “read-out: % Inhibitory activity (at 20 μM), Table 2”, the inhibition at 20 µM was less than 25%.
For the molecule `CC(O[C@@H]1[C@@H](n2cc(-c3cc(F)c(F)c(F)c3)nn2)[C@@H](O)[C@@H](CO)O[C@@]12CCCCO2)C(=O)O` (stereo partly drawn) [Compound A55, 2-(((2R,3R,4S,5R,6S)-3-hydroxy-2-(hydroxymethyl)-4-(4-(3,4,5-trifluorophenyl)-1H-1,2,3-triazol-1-yl)-1,7-dioxaspiro[5.5]undecan-5-yl)oxy)propanoic acid], the inhibition at 20 µM under setting [3] fell in the range of 50 to 75% and the inhibition at 20 µM (read-out: % Inhibitory activity (at 20 μM), Table 3, found values) was found to be 60%.
Regarding `O=C(N[C@@H]1CCO[C@]12O[C@H](CO)[C@H](O)[C@H](n1cc(-c3cc(F)c(F)c(F)c3)nn1)[C@H]2O)c1cccc2ncc(Cl)cc12` [Compound A217, 3-chloro-N-((4R,5S,7R,8R,9S,10R)-8,10-dihydroxy-7-(hydroxymethyl)-9-(4-(3,4,5-trifluorophenyl)-1H-1,2,3-triazol-1-yl)-1,6-dioxaspiro[4.5]decan-4-yl)quinoline-5-carboxamide], under setting [4], the inhibition at 20 µM was greater than 75%.
Consider `O=C(Cc1ccc(Cl)cc1)N[C@@H]1CCO[C@]12O[C@H](CO)[C@H](O)[C@H](n1cc(-c3cc(F)c(F)c(F)c3)nn1)[C@H]2O` [Compound A117, 2-(4-chlorophenyl)-N-((4R,5S,7R,8R,9S,10R)-8,10-dihydroxy-7-(hydroxymethyl)-9-(4-(3,4,5-trifluorophenyl)-1H-1,2,3-triazol-1-yl)-1,6-dioxaspiro[4.5]decan-4-yl)acetamide], for which the inhibition at 20 µM under setting [1] was in the range of 50 to 75%.
Regarding `OC[C@H]1O[C@]2(OCC[C@H]2NCc2cccc(F)c2)[C@H](O)[C@@H](n2cc(-c3cc(F)c(F)c(F)c3)nn2)[C@H]1O` [Compound A62, (4R,5S,7R,8R,9S,10R)-4-((3-fluorobenzyl)amino)-7-(hydroxymethyl)-9-(4-(3,4,5-trifluorophenyl)-1H-1,2,3-triazol-1-yl)-1,6-dioxaspiro[4.5]decane-8,10-diol], the inhibition at 20 µM under setting [1] is 50 to 75%.
Consider `OC[C@H]1O[C@@]2(CCCNC2)[C@H](O)[C@@H](n2cc(-c3cc(F)c(F)c(F)c3)nn2)[C@H]1O` [Compound A110, (2R,3R,4S,5R,6R)-2-(hydroxymethyl)-4-(4-(3,4,5-trifluorophenyl)-1H-1,2,3-triazol-1-yl)-1-oxa-8-azaspiro[5.5]undecane-3,5-diol], for which the inhibition at 20 µM under setting [1] is less than 25%.
As to `COc1cccc(C(=O)N[C@@H]2CCO[C@]23O[C@H](CO)[C@H](O)[C@H](n2cc(-c4cc(F)c(F)c(F)c4)nn2)[C@H]3O)c1` [Compound A118, N-((4R,5S,7R,8R,9S,10R)-8,10-dihydroxy-7-(hydroxymethyl)-9-(4-(3,4,5-trifluorophenyl)-1H-1,2,3-triazol-1-yl)-1,6-dioxaspiro[4.5]decan-4-yl)-3-methoxybenzamide], the inhibition at 20 µM under setting [1] is greater than 75%.
Regarding `O=C(N[C@@H]1CCO[C@]12O[C@H](CO)[C@H](O)[C@H](n1cc(-c3cc(F)c(F)c(F)c3)nn1)[C@H]2O)c1c[nH]c2cccc(Br)c12` [Compound A253, 4-bromo-N-((4R,5S,7R,8R,9S,10R)-8,10-dihydroxy-7-(hydroxymethyl)-9-(4-(3,4,5-trifluorophenyl)-1H-1,2,3-triazol-1-yl)-1,6-dioxaspiro[4.5]decan-4-yl)-1H-indole-3-carboxamide], the inhibition at 20 µM under setting [4] was greater than 75%.
With `O=C(N[C@@H]1CCO[C@]12O[C@H](CO)[C@H](O)[C@H](n1cc(-c3cc(F)c(F)c(F)c3)nn1)[C@H]2OCc1nn[nH]n1)c1ccc(F)c2ccccc12` [Compound A210, N-((4R,5S,7R,8R,9S,10R)-10-((2H-tetrazol-5-yl)methoxy)-8-hydroxy-7-(hydroxymethyl)-9-(4-(3,4,5-trifluorophenyl)-1H-1,2,3-triazol-1-yl)-1,6-dioxaspiro[4.5]decan-4-yl)-4-fluoro-1-naphthamide], the inhibition at 20 µM was greater than 75% under setting [4] and 90.6% under setting [2].
`CO[C@@H]1[C@@H](n2cc(-c3cc(F)c(F)c(F)c3)nn2)[C@@H](O)[C@@H](CO)O[C@@]12CCCO2` [Compound A257, (5S,7R,8R,9S,10R)-7-(hydroxymethyl)-10-methoxy-9-(4-(3,4,5-trifluorophenyl)-1H-1,2,3-triazol-1-yl)-1,6-dioxaspiro[4.5]decan-8-ol]: the inhibition at 20 µM under setting [4] is 25 to 50% and the inhibition at 20 µM under setting [2] was 39.2%.
With `O=C(O[C@@H]1[C@@H](n2cc(-c3cc(F)c(F)c(F)c3)nn2)[C@@H](O)[C@@H](CO)O[C@@]12CCCO2)c1cc(F)cc(F)c1` [Compound A92, (5S,7R,8R,9S,10R)-8-hydroxy-7-(hydroxymethyl)-9-(4-(3,4,5-trifluorophenyl)-1H-1,2,3-triazol-1-yl)-1,6-dioxaspiro[4.5]decan-10-yl 3,5-difluorobenzoate], under setting [1], the inhibition at 20 µM lay in the range of 25 to 50%.

These data come from patent publication US20250026778A1 (TIUMBIO CO., LTD., priority 2021, published 2025).
